In data set [1] the target is T1, MalQ (Escherichia coli, UniProt P15977).
T1 construct: recombinant in E. coli, His-tagged, IMAC purified; biotinylated or amine-coupled for SPR
T1 sequence (P15977 1-694): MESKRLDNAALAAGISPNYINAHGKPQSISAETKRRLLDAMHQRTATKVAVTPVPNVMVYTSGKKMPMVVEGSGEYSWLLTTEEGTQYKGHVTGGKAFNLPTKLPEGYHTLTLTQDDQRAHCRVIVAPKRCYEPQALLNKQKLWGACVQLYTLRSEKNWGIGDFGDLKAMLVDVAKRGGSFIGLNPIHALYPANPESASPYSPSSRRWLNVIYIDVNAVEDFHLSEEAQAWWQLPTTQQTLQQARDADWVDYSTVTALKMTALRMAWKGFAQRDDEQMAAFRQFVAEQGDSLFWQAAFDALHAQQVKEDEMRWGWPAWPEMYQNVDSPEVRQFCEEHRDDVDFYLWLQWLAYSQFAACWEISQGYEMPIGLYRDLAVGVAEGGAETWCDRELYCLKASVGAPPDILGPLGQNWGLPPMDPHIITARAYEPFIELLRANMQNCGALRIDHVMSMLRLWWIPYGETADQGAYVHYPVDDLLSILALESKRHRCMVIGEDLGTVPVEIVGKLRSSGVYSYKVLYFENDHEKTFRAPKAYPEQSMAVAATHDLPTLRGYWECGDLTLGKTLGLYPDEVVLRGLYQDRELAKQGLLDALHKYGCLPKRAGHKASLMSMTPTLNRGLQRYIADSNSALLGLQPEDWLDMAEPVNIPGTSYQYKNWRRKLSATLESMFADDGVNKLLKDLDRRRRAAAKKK
Kind of data set: coupled hexokinase / glucose-6-phosphate dehydrogenase assay, Hanes plot. Format: biochemical. The settings on record: maltose as donor, Glc7 as acceptor; two separate preparations; pH 7.9, 1 mM MgCl2.

Data set [2] addresses T2, DPE2 (Arabidopsis thaliana, UniProt Q8RXD9).
T2 construct: recombinant in E. coli Rosetta II, pET151, N-terminal His6 tag removed with TEV protease; homodimer; biotinylated for SPR
T2 sequence (Q8RXD9 1-955): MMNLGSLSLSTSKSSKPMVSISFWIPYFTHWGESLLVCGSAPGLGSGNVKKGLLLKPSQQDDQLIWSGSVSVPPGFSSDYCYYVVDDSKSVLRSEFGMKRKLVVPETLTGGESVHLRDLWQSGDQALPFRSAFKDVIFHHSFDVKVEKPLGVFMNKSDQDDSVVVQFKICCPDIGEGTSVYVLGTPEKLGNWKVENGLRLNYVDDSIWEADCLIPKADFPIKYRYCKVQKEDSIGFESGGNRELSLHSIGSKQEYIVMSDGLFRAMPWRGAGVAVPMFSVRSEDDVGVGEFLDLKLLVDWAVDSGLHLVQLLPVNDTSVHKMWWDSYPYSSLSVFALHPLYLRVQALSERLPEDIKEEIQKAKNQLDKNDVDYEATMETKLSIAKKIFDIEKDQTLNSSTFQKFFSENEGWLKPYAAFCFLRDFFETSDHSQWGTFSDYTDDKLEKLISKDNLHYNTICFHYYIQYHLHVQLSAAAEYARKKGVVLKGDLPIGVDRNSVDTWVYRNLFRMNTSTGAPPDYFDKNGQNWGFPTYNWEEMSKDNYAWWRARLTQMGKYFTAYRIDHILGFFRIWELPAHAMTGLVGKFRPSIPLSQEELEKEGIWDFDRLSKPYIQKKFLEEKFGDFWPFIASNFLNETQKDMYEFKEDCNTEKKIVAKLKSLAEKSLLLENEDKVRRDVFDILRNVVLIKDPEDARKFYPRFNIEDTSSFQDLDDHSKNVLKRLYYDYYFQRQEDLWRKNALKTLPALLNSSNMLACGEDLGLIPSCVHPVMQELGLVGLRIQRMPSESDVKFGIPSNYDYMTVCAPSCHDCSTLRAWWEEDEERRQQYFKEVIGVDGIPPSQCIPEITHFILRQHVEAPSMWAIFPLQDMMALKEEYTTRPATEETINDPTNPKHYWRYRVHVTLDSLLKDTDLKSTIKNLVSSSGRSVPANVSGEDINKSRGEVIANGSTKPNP
Described as above. It is filed as biochemical. As to conditions: maltose as donor, glycogen as acceptor; two separate preparations; pH 7.9, 1 mM MgCl2.

Data set [3] concerns the target T1, MalQ. Nature of the data set: SPR, steady-state affinity fit, MalQ amine-coupled to CM5 chip. It is filed as binding. The settings on record: 10 mM HEPES pH 7.0, 25 °C; read-out: dissociation constant. For orientation: In SPR one partner is held on a chip, and binding of the other changes the refractive index at the surface.
The target in data set [4] is T2, DPE2. Nature of the data set: SPR, steady-state affinity fit, biotinylated protein on streptavidin chip. It is filed as binding. As to conditions: 10 mM HEPES pH 7.0, 25 °C.
For data set [5], the target named is T1, MalQ. The description is as above. It is filed as binding. As to conditions: 10 mM HEPES pH 7.0, 25 °C.
Data set [6] concerns the molecule itself. Kind of data set: SEC; Superdex S-200 16/60 in 25 mM HEPES (pH 7.5), 50 mM NaCl; purified DPE2 after His tag cleavage; elution compared with molecular mass markers. On the technique in general: In gel filtration, larger molecules generally elute earlier.

Take `OC[C@H]1O[C@H](O[C@H]2[C@H](O)[C@@H](O)C(O)O[C@@H]2CO)[C@H](O)[C@@H](O)[C@@H]1O` (stereo partly drawn) [maltose]: the Km was 2.1 and 1.9 mM at MalQ [1]; 2.9 and 2.3 mM at DPE2 [2].
Turning to `OC[C@H]1O[C@H](O[C@H]2[C@H](O)[C@@H](O)[C@@H](O[C@H]3[C@H](O)[C@@H](O)[C@@H](O[C@H]4[C@H](O)[C@@H](O)C(O)O[C@@H]4CO)O[C@@H]3CO)O[C@@H]2CO)[C@H](O)[C@@H](O)[C@@H]1O` (stereo partly drawn) [Glc4], on MalQ [3], the Kd worked out at 410 nM. The dissociation constant result at DPE2 [4] was “bound malto-oligosaccharides Glc5, Glc6, and Glc7 more strongly than Glc4”.
`OC[C@H]1O[C@H](O[C@H]2[C@H](O)[C@@H](O)[C@@H](O[C@H]3[C@H](O)[C@@H](O)[C@@H](O[C@H]4[C@H](O)[C@@H](O)[C@@H](O[C@H]5[C@H](O)[C@@H](O)C(O)O[C@@H]5CO)O[C@@H]4CO)O[C@@H]3CO)O[C@@H]2CO)[C@H](O)[C@@H](O)[C@@H]1O` (stereo partly drawn) [Glc5]: the dissociation constant entry on MalQ [5] is “progressively lower affinities for Glc5, Glc6, and Glc7”; on DPE2 [4], “bound malto-oligosaccharides Glc5, Glc6, and Glc7 more strongly than Glc4”.
Take `OC[C@H]1O[C@H](O[C@H]2[C@H](O)[C@@H](O)[C@@H](O[C@H]3[C@H](O)[C@@H](O)C(O)O[C@@H]3CO)O[C@@H]2CO)[C@H](O)[C@@H](O)[C@@H]1O` (stereo partly drawn) [Glc3]: the Kd on MalQ [3] was found to be 260 nM.
For `OC[C@H]1O[C@H](O[C@H]2[C@H](O)[C@@H](O)[C@@H](O[C@H]3[C@H](O)[C@@H](O)[C@@H](O[C@H]4[C@H](O)[C@@H](O)[C@@H](O[C@H]5[C@H](O)[C@@H](O)[C@@H](O[C@H]6[C@H](O)[C@@H](O)[C@@H](O[C@H]7[C@H](O)[C@@H](O)C(O)O[C@@H]7CO)O[C@@H]6CO)O[C@@H]5CO)O[C@@H]4CO)O[C@@H]3CO)O[C@@H]2CO)[C@H](O)[C@@H](O)[C@@H]1O` (stereo partly drawn) [Glc7], the dissociation constant result is “progressively lower affinities for Glc5, Glc6, and Glc7” at MalQ [5]; “bound malto-oligosaccharides Glc5, Glc6, and Glc7 more strongly than Glc4” on DPE2 [4].
For `OC[C@H]1O[C@H](O[C@H]2[C@H](O)[C@@H](O)[C@@H](O[C@H]3[C@H](O)[C@@H](O)[C@@H](O[C@H]4[C@H](O)[C@@H](O)[C@@H](O[C@H]5[C@H](O)[C@@H](O)[C@@H](O[C@H]6[C@H](O)[C@@H](O)C(O)O[C@@H]6CO)O[C@@H]5CO)O[C@@H]4CO)O[C@@H]3CO)O[C@@H]2CO)[C@H](O)[C@@H](O)[C@@H]1O` (stereo partly drawn) [Glc6], the dissociation constant entry was “progressively lower affinities for Glc5, Glc6, and Glc7” on MalQ [5]; “bound malto-oligosaccharides Glc5, Glc6, and Glc7 more strongly than Glc4” on DPE2 [4].

B1: DPE2 (4-alpha-glucanotransferase, disproportionating enzyme 2) from Arabidopsis, recombinant (enzyme, Arabidopsis thaliana, UniProt Q8RXD9 1-955, looked up)
chain: MMNLGSLSLSTSKSSKPMVSISFWIPYFTHWGESLLVCGSAPGLGSGNVKKGLLLKPSQQDDQLIWSGSVSVPPGFSSDYCYYVVDDSKSVLRSEFGMKRKLVVPETLTGGESVHLRDLWQSGDQALPFRSAFKDVIFHHSFDVKVEKPLGVFMNKSDQDDSVVVQFKICCPDIGEGTSVYVLGTPEKLGNWKVENGLRLNYVDDSIWEADCLIPKADFPIKYRYCKVQKEDSIGFESGGNRELSLHSIGSKQEYIVMSDGLFRAMPWRGAGVAVPMFSVRSEDDVGVGEFLDLKLLVDWAVDSGLHLVQLLPVNDTSVHKMWWDSYPYSSLSVFALHPLYLRVQALSERLPEDIKEEIQKAKNQLDKNDVDYEATMETKLSIAKKIFDIEKDQTLNSSTFQKFFSENEGWLKPYAAFCFLRDFFETSDHSQWGTFSDYTDDKLEKLISKDNLHYNTICFHYYIQYHLHVQLSAAAEYARKKGVVLKGDLPIGVDRNSVDTWVYRNLFRMNTSTGAPPDYFDKNGQNWGFPTYNWEEMSKDNYAWWRARLTQMGKYFTAYRIDHILGFFRIWELPAHAMTGLVGKFRPSIPLSQEELEKEGIWDFDRLSKPYIQKKFLEEKFGDFWPFIASNFLNETQKDMYEFKEDCNTEKKIVAKLKSLAEKSLLLENEDKVRRDVFDILRNVVLIKDPEDARKFYPRFNIEDTSSFQDLDDHSKNVLKRLYYDYYFQRQEDLWRKNALKTLPALLNSSNMLACGEDLGLIPSCVHPVMQELGLVGLRIQRMPSESDVKFGIPSNYDYMTVCAPSCHDCSTLRAWWEEDEERRQQYFKEVIGVDGIPPSQCIPEITHFILRQHVEAPSMWAIFPLQDMMALKEEYTTRPATEETINDPTNPKHYWRYRVHVTLDSLLKDTDLKSTIKNLVSSSGRSVPANVSGEDINKSRGEVIANGSTKPNP
notes: DPE2, cytosolic 4-alpha-glucanotransferase of Arabidopsis thaliana, At2g40840; also called native DPE2; recombinant DPE2; source: E. coli Rosetta II, purified (nickel IMAC, TEV protease treatment, second IMAC, Superdex S-200); not shown: His6, N-terminal, cleaved
A word on the stoichiometry N: it is a count of units in the complex or per binding partner. As for B1, in data set [6], the “stoichiometry N” value is 2.
